Source: patent publication US6706663B2, “Herbicidal 3-heterocyclic substituted benzisothiazole and benzisoxazole compounds” (Wyeth, priority 2000, dated 2004)

Tests used:
[1] = test system: GLXMAW (Soybean, Williams); experiment: Preemergence herbicidal evaluation; assay type: in vivo, Glycine max, (L.) Merr. cv Williams; conditions: rated 4-5 weeks after treatment
[2] = test system: CASOB (Cassia obtusifolia); experiment: Preemergence herbicidal evaluation; assay type: in vivo, L.; conditions: rated 4-5 weeks after treatment
Summary of the method: (§1)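 Each species was sown separately in potting soil over roughly one inch of soil, and the surface sprayed with compound dissolved in aqueous acetone. Assessment used a 0–9 visual scale against a control after four to five weeks.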

[3] = test system: CHEAL (Chenopodium album); experiment: Preemergence herbicidal evaluation; assay type: in vivo, L.; conditions: rated 4-5 weeks after treatment
Summary of the method: as §1

[4] = test system: AMBEL (Ambrosia artemisifolia); experiment: Preemergence herbicidal evaluation; assay type: in vivo, L.; conditions: rated 4-5 weeks after treatment
Summary of the method: as §1

[5] = test system: ABUTH (Abutilon theophrasti); experiment: Preemergence herbicidal evaluation; assay type: in vivo, Medic.; conditions: rated 4-5 weeks after treatment
[6] = test system: ECHORC (Echinochloa oryzoides); experiment: Flooded paddy, preemergence weed control; assay type: in vivo, Echinochloa oryzoides (Ard.) Fritsch.; conditions: rated 3-4 weeks after treatment, 0-9 rating scale
Summary of the method: (§2)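 Flooded silt loam pots, seeds in upper 0.5 cm, water held 1.5–3 cm deep; greenhouse; visual 0-9 score vs control.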

[7] = test system: IPOHE (Ipomoea hederacea); experiment: Preemergence herbicidal evaluation; assay type: in vivo, (L.) Jacq.; conditions: rated 4-5 weeks after treatment
[8] = test system: TRZAWR (Wheat, Winter, cv Riband); experiment: Postemergence herbicidal evaluation; assay type: in vivo, Triticum aestivum; conditions: postemergence
Summary of the method: (§3)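 Seedlings grown for about two weeks were sprayed postemergence and then kept under standard greenhouse care. Injury was rated visually 4–5 weeks after treatment on a 0–9 scale against untreated controls, and ratings from repeat tests were averaged.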

[9] = test system: ECHCG (Echinochloa crus-galli); experiment: Postemergence herbicidal evaluation; assay type: in vivo, (L.) Beau; conditions: postemergence
Summary of the method: as §3

ORYSAT (Rice, Tebonnet) = experiment: Flooded paddy, post-transplant rice tolerance; assay type: in vivo, Oryza sativa, (L.) Tebonnet; conditions: flooded paddy, post-transplant rice, rated 3-4 weeks after treatment, 0-9 rating scale
Summary of the method: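 Visual 0-9 rating against a control, covering stand, vigor, malformation, size, chlorosis and overall appearance. Treatment was applied after transplanting paired ten-day-old seedlings into flooded silt loam, with water kept 1.5 to 3 cm deep on greenhouse benches.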

[10] = test system: MOOVA (Monochoria vaginalis); experiment: Flooded paddy, preemergence weed control; assay type: in vivo, Presl.; conditions: rated 3-4 weeks after treatment, 0-9 rating scale
Summary of the method: as §2

[11] = test system: SAGPY (Sagittaria pygmaea); experiment: Flooded paddy, preemergence weed control; assay type: in vivo, L.; conditions: rated 3-4 weeks after treatment, 0-9 rating scale
Summary of the method: as §2

ZEAMX (Corn, Field) = experiment: Preemergence herbicidal evaluation; assay type: in vivo, Zea mays, L.; conditions: rated 4-5 weeks after treatment
CYPIR (Cyperus iria) = experiment: Flooded paddy, preemergence weed control; assay type: in vivo; conditions: rated 3-4 weeks after treatment, 0-9 rating scale
Summary of the method: as §2

SETVI (Setaria viridis) = experiment: Postemergence herbicidal evaluation; assay type: in vivo, (L.) Beau; conditions: postemergence
Summary of the method: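 Seedlings about two weeks old were sprayed with compound in 50/50 acetone/water plus 0.5% TWEEN 20, at the equivalent of about 0.0040 to 1.000 kg/ha. Plants were kept in a greenhouse and visually rated 0-9 against a control four to five weeks after treatment. Repeat tests were averaged.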

[12] = test system: CYPSE (Cyperus serotinus); experiment: Flooded paddy, preemergence weed control; assay type: in vivo, Rottb.; conditions: rated 3-4 weeks after treatment, 0-9 rating scale
Summary of the method: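 Herbicidal effect was scored visually on a 0–9 scale against an untreated control 3–4 weeks after treatment. Compounds were applied preemergence as 50/50 v/v aqueous/acetone mixtures into flood water (1.5–3 cm deep over silt loam), at roughly 0.0080 to 0.1250 kg/ha active ingredient.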

## Cn1c(C(F)(F)F)cc(=O)n(-c2ccc3snc(-c4sccc4Cl)c3c2)c1=O [Compound 52, 3-[3-(3-chloro-2-thienyl)-1,2-benzisothiazol-5-yl]-1-methyl-6-(trifluoromethyl)uracil]
[1]; Rate 0.0620 kg/ha
  Preemergence herbicidal rating GLXMAW: 1.5
[1]; Rate 0.1250 kg/ha
  Preemergence herbicidal rating GLXMAW: 4.0
[1]; Rate 0.2500 kg/ha
  Preemergence herbicidal rating GLXMAW: 9.0
[2]; Rate 0.0620 kg/ha
  Preemergence herbicidal rating CASOB: 1.0
[2]; Rate 0.1250 kg/ha
  Preemergence herbicidal rating CASOB: 1.0
[2]; Rate 0.2500 kg/ha
  Preemergence herbicidal rating CASOB: 4.0
[3]; Rate 0.0620 kg/ha
  Preemergence herbicidal rating CHEAL: 9.0
[3]; Rate 0.1250 kg/ha
  Preemergence herbicidal rating CHEAL: 9.0
[3]; Rate 0.2500 kg/ha
  Preemergence herbicidal rating CHEAL: 9.0
[4]; Rate 0.0620 kg/ha
  Preemergence herbicidal rating AMBEL: 3.5
[4]; Rate 0.1250 kg/ha
  Preemergence herbicidal rating AMBEL: 8.5
[4]; Rate 0.2500 kg/ha
  Preemergence herbicidal rating AMBEL: 9.0
[5]; Rate 0.0620 kg/ha
  Preemergence herbicidal rating ABUTH: 9.0
[5]; Rate 0.1250 kg/ha
  Preemergence herbicidal rating ABUTH: 8.5
[5]; Rate 0.2500 kg/ha
  Preemergence herbicidal rating ABUTH: 9.0
[6]; rate 0.0080 kg/ha
  herbicidal rating, ECHORC: 8.5
[6]; rate 0.0320 kg/ha
  herbicidal rating, ECHORC: 9.0
[6]; rate 0.1250 kg/ha
  herbicidal rating, ECHORC: 9.0
[7]; Rate 0.0620 kg/ha
  Preemergence herbicidal rating IPOHE: 2.0
[7]; Rate 0.1250 kg/ha
  Preemergence herbicidal rating IPOHE: 3.0
[7]; Rate 0.2500 kg/ha
  Preemergence herbicidal rating IPOHE: 6.0
[8]; rate 0.0320 kg/ha
  TRZAWR herbicidal rating: 4.0
[8]; rate 0.0620 kg/ha
  TRZAWR herbicidal rating: 4.0
[8]; rate 0.1250 kg/ha
  TRZAWR herbicidal rating: 5.0
[9]; rate 0.0320 kg/ha
  ECHCG herbicidal rating: 0.0
[9]; rate 0.0620 kg/ha
  ECHCG herbicidal rating: 1.0
[9]; rate 0.1250 kg/ha
  ECHCG herbicidal rating: 5.0
ORYSAT (Rice, Tebonnet); rate 0.0080 kg/ha
  herbicidal rating, ORYSAT (rice tolerance): 1.0
ORYSAT (Rice, Tebonnet); rate 0.0320 kg/ha
  herbicidal rating, ORYSAT (rice tolerance): 3.7
ORYSAT (Rice, Tebonnet); rate 0.1250 kg/ha
  herbicidal rating, ORYSAT (rice tolerance): 5.7
[10]; rate 0.0080 kg/ha
  herbicidal rating, MOOVA: 9.0
[10]; rate 0.0320 kg/ha
  herbicidal rating, MOOVA: 9.0
[10]; rate 0.1250 kg/ha
  herbicidal rating, MOOVA: 9.0
[11]; rate 0.0080 kg/ha
  herbicidal rating, SAGPY: 0.0
[11]; rate 0.0320 kg/ha
  herbicidal rating, SAGPY: 3.7
[11]; rate 0.1250 kg/ha
  herbicidal rating, SAGPY: 7.7
ZEAMX (Corn, Field); Rate 0.0620 kg/ha
  Preemergence herbicidal rating ZEAMX: 1.5
ZEAMX (Corn, Field); Rate 0.1250 kg/ha
  Preemergence herbicidal rating ZEAMX: 3.5
ZEAMX (Corn, Field); Rate 0.2500 kg/ha
  Preemergence herbicidal rating ZEAMX: 7.0
CYPIR (Cyperus iria); rate 0.0080 kg/ha
  herbicidal rating, CYPIR: 9.0
CYPIR (Cyperus iria); rate 0.0320 kg/ha
  herbicidal rating, CYPIR: 9.0
CYPIR (Cyperus iria); rate 0.1250 kg/ha
  herbicidal rating, CYPIR: 9.0
SETVI (Setaria viridis); rate 0.0320 kg/ha
  SETVI herbicidal rating: 9.0
SETVI (Setaria viridis); rate 0.0620 kg/ha
  SETVI herbicidal rating: 9.0
SETVI (Setaria viridis); rate 0.1250 kg/ha
  SETVI herbicidal rating: 9.0
[12]; rate 0.0320 kg/ha
  herbicidal rating, CYPSE: 9.0
[12]; rate 0.1250 kg/ha
  herbicidal rating, CYPSE: 9.0

## Cn1c(C(F)(F)F)cc(=O)n(-c2ccc3snc(-c4nccs4)c3c2)c1=O [Compound 53, 1-methyl-3-[3-(2-thiazolyl)-1,2-benzisothiazol-5-yl]-6-(trifluoromethyl)uracil]
[1]; Rate 0.0620 kg/ha
  Preemergence herbicidal rating GLXMAW: 1.0
[1]; Rate 0.1250 kg/ha
  Preemergence herbicidal rating GLXMAW: 2.5
[1]; Rate 0.2500 kg/ha
  Preemergence herbicidal rating GLXMAW: 6.5
[2]; Rate 0.0620 kg/ha
  Preemergence herbicidal rating CASOB: 0.0
[2]; Rate 0.1250 kg/ha
  Preemergence herbicidal rating CASOB: 1.0
[2]; Rate 0.2500 kg/ha
  Preemergence herbicidal rating CASOB: 3.0
[3]; Rate 0.0620 kg/ha
  Preemergence herbicidal rating CHEAL: 9.0
[3]; Rate 0.1250 kg/ha
  Preemergence herbicidal rating CHEAL: 9.0
[3]; Rate 0.2500 kg/ha
  Preemergence herbicidal rating CHEAL: 9.0
[4]; Rate 0.0620 kg/ha
  Preemergence herbicidal rating AMBEL: 4.0
[4]; Rate 0.1250 kg/ha
  Preemergence herbicidal rating AMBEL: 8.0
[4]; Rate 0.2500 kg/ha
  Preemergence herbicidal rating AMBEL: 8.5
[5]; Rate 0.0620 kg/ha
  Preemergence herbicidal rating ABUTH: 5.0
[5]; Rate 0.1250 kg/ha
  Preemergence herbicidal rating ABUTH: 7.5
[5]; Rate 0.2500 kg/ha
  Preemergence herbicidal rating ABUTH: 9.0
[6]; rate 0.0080 kg/ha
  herbicidal rating, ECHORC: 3.0
[6]; rate 0.0320 kg/ha
  herbicidal rating, ECHORC: 9.0
[6]; rate 0.1250 kg/ha
  herbicidal rating, ECHORC: 9.0
[7]; Rate 0.0620 kg/ha
  Preemergence herbicidal rating IPOHE: 1.0
[7]; Rate 0.1250 kg/ha
  Preemergence herbicidal rating IPOHE: 3.0
[7]; Rate 0.2500 kg/ha
  Preemergence herbicidal rating IPOHE: 8.0
[8]; rate 0.0320 kg/ha
  TRZAWR herbicidal rating: 3.3
[8]; rate 0.0620 kg/ha
  TRZAWR herbicidal rating: 4.0
[8]; rate 0.1250 kg/ha
  TRZAWR herbicidal rating: 4.0
[9]; rate 0.0320 kg/ha
  ECHCG herbicidal rating: 1.0
[9]; rate 0.0620 kg/ha
  ECHCG herbicidal rating: 2.0
[9]; rate 0.1250 kg/ha
  ECHCG herbicidal rating: 1.0
ORYSAT (Rice, Tebonnet); rate 0.0080 kg/ha
  herbicidal rating, ORYSAT (rice tolerance): 0.5
ORYSAT (Rice, Tebonnet); rate 0.0320 kg/ha
  herbicidal rating, ORYSAT (rice tolerance): 2.7
ORYSAT (Rice, Tebonnet); rate 0.1250 kg/ha
  herbicidal rating, ORYSAT (rice tolerance): 5.0
[10]; rate 0.0080 kg/ha
  herbicidal rating, MOOVA: 9.0
[10]; rate 0.0320 kg/ha
  herbicidal rating, MOOVA: 9.0
[10]; rate 0.1250 kg/ha
  herbicidal rating, MOOVA: 9.0
[11]; rate 0.0080 kg/ha
  herbicidal rating, SAGPY: 0.0
[11]; rate 0.0320 kg/ha
  herbicidal rating, SAGPY: 4.3
[11]; rate 0.1250 kg/ha
  herbicidal rating, SAGPY: 9.0
ZEAMX (Corn, Field); Rate 0.0620 kg/ha
  Preemergence herbicidal rating ZEAMX: 4.0
ZEAMX (Corn, Field); Rate 0.1250 kg/ha
  Preemergence herbicidal rating ZEAMX: 5.0
ZEAMX (Corn, Field); Rate 0.2500 kg/ha
  Preemergence herbicidal rating ZEAMX: 7.0
CYPIR (Cyperus iria); rate 0.0080 kg/ha
  herbicidal rating, CYPIR: 9.0
CYPIR (Cyperus iria); rate 0.0320 kg/ha
  herbicidal rating, CYPIR: 8.3
CYPIR (Cyperus iria); rate 0.1250 kg/ha
  herbicidal rating, CYPIR: 9.0
SETVI (Setaria viridis); rate 0.0320 kg/ha
  SETVI herbicidal rating: 2.5
SETVI (Setaria viridis); rate 0.0620 kg/ha
  SETVI herbicidal rating: 5.5
SETVI (Setaria viridis); rate 0.1250 kg/ha
  SETVI herbicidal rating: 9.0
[12]; rate 0.0320 kg/ha
  herbicidal rating, CYPSE: 3.0
[12]; rate 0.1250 kg/ha
  herbicidal rating, CYPSE: 9.0
